According to patent US8377883B2, “Peptide for anti-angiogenesis and use thereof” (Beijing Institute for Cancer Research, priority 2006, dated 2013):

Tests used:
[1] = tested on: human umbilical vein endothelial cells (HUVECs); test: Microfilament skeleton of HUVECs by confocal microscope; assay type: cell-based; settings: 10, 25, 100 μg/ml; 48, 72, 96 hours
Description: Human umbilical cord samples (obtained from Beijing Obstetrics & Gynecology Hospital) was digested with 0.1% collagenase I (available from GIBCO BRL company), followed by a centrifugation (1000 rpm, 10 minutes) to collect human umbilical vein endothelial cells (HUVECs). After suspended in 20% FCS/RPMI1640, the cells were transferred into plastic bottles for culture in CO2 incubator (37° C., 5% CO2). Twelve hours later, unattached cells were discarded by changing medium, and then the remaining cells were cultured conventionally with the medium changed every 3 days. The cultured HUVECs were digested with 0.04% trypsin-EDTA, and inoculated into 24-well plate at 2×10^4 cells/well; and the vehicle (PBS) and FpAT (10 μg/ml, 25 μg/ml, 100 μg/ml) were added separately, with 3 parallel wells per group. […] After washing twice with PBS, Hoechst was added to stain nucleus. After washed once with PBS, the slide was mounted with mounting solution, and stored at 4° C. in the dark. The change of cytoskeleton was observed employing a confocal microscope.

[2] = tested on: chick chorioallantoic membrane vessel; test: Proliferation of chick chorioallantoic membrane vessel; settings: 10 μl of 1 μg/μL on glass fiber filter membrane, 24 hours
Description: In this example an experiment of proliferation of chick chorioallantoic membrane vessel was carried out to test suppressing effects of FpAT on angiogenesis.
The test was performed according to the method described in the reference “Fu Shengfa, Lu yinglin, Zhang Chaoshan et al., A chick chorioallantoic membrane technique to test function of vascular growth factors, Bulletin of the Academy of Military Medical Sciences 1993, 17:294-97”. Fresh fertilized hen eggs were immersed into 0.1% benzalkonium bromide solution at 38° C. for 2 minutes, and then incubated in an incubator at 37.5° C. in a humidity of 60-70% for 3 days. Then the eggs with shell removed were transferred to plate and cultured. The samples were separated into groups and administered when the allantoic membrane grew to about 2 cm^2, 5 chicken embryos per group. 10 μl of FpAT (1 μg/μL), PBS (negative control) was dropped on a glass fiber filter membrane of Φ4 mm, which was placed at distal end of chorioallantoic membrane, and cultured for 24 hours. The results were observed and recorded by taking photos. The experiment was repeated twice.

[3] = tested on: human colon cancer HT-29 cells; test: Tumor suppression in human colon cancer HT-29 tumor-bearing nude mice model; assay type: in vivo, Balb/c nude mice; settings: 50 μg/100 μl PBS/injection, angulus oculi medialis vein once every other day, 10 times; vs vehicle, P<0.05
Description: (§1) In order to confirm the biological effects of FpAT on the growth of human deriving tumors in nude mice in vivo, a tumor suppression experiment was carried out in this example using human gastric carcinoma BGC-823 cells tumor-bearing nude mice model, human lung cancer PG cells tumor-bearing nude mice model and human colon cancer HT-29 cells tumor-bearing nude mice model.
(§2) Twenty 5-week old Balb/c nude mice purchased from Animal Center Of Chinese Academy Of Medical Sciences were inoculated subcutaneously in forelimb with human gastric carcinoma BGC-823 cells (National Institute for the Control of Pharmaceutical and Biological Products) (5×10^6/100 μl/mouse), human lung cancer PG cells (National Institute for the Control of Pharmaceutical and Biological Products) (5×10^6/100 μl/mouse) or human colon cancer HT-29 cells (ATCC® Number: HTB-38™) (5×10^6/100 μl/mouse). On the next day after inoculation, each kind of inoculated cells were divided into 2 groups randomly with 5 mice per group. […] Observation was continued for another 20 days after administration was stopped, and during this period the long and short diameters of the tumors were measured with a vernier caliper once every three days, and the volumes of the tumor mass were calculated according to formula ½×long diameter×short diameter^2. […]

[4] = tested on: mice liver cancer H22 cells; test: Tumor suppression by FpAT and derivative peptides in liver cancer H22 tumor-bearing mouse model (Example 14); assay type: in vivo, mice of Kunming strain; settings: peptides 50 μg/100 μl PBS/injection, angulus oculi medialis vein daily, 7 times; CTX 80 mg/KG; tumors weighed
Description: Ninety 5-week old mice of Kunming strain purchased from Animal Center Of Chinese Academy Of Medical Sciences were inoculated subcutaneously in forelimb with mice liver cancer H22 cells (National Institute for the Control of Pharmaceutical and Biological Products) (5×10^6/100 μl/mouse). On the next day after inoculation, each kind of inoculated cells were divided randomly into […] with 10 mice per group. FpAT (50 μg/100 μl PBS/injection) and 7 kinds of derivative peptides thereof (see Table 5 below for detailed sequence):FpAT-N3d, FpAT-N6d, FpAT-N9d, FpAT-C3d, FpAT-C6d, FpAT-C9d, FpAT-N5d-C4d, and vehicle control (PBS:100 μl/injection) were injected in angulus oculi medialis vein, with CTX (cyclophosphamide) (80 mg/KG) as positive control daily, 7 times in total. The mice were sacrificed by dislocating the neck on the next day after administration was stopped, and the tumors were taken and weighed for a statistical analysis.

[5] = tested on: human gastric carcinoma BGC-823 cells; test: Tumor suppression in human gastric carcinoma BGC-823 tumor-bearing nude mice model; assay type: in vivo, Balb/c nude mice; settings: 50 μg/100 μl PBS/injection, angulus oculi medialis vein once every other day, 10 times; vs vehicle, P<0.05
Description: as §1, §2

[6] = tested on: mouse liver cancer H22 cells; test: Tumor suppression in liver cancer H22 cells tumor-bearing mouse model (Example 4); assay type: in vivo, mice of Kunming strain; settings: 50 m/1000 PBS/injection, angulus oculi medialis vein daily, 7 times; vs PBS control, P<0.05
Description: To confirm the biological effects of FpAT on the growth of mice deriving tumor in mice in vivo, a tumor suppression experiment was carried out in this example using liver cancer H22 cells tumor-bearing mouse model of mice of Kunming strain and osteosarcoma S180 cells tumor-bearing mouse model of mice of Kunming strain. Forty 5-week old mice of Kunming strain purchased from Animal Center Of Chinese Academy Of Medical Sciences were inoculated subcutaneously in forelimb with mouse liver cancer H22 cells (National Institute for the Control of Pharmaceutical and Biological Products) (5×10^6/100 μl/mouse) or osteosarcoma S180 cells (National Institute for the Control of Pharmaceutical and Biological Products) (5×10^6/100 μl/mouse). On the next day after inoculation, each kind of inoculated cells were divided into 2 groups randomly with 10 mice per group. FpAT ([…]) or vehicle (the solvent for peptide) control (PBS:100 μl/injection) were injected in angulus oculi medialis vein daily, 7 times in total. The mice were sacrificed by dislocating the neck on the next day after administration was stopped, and the tumors were taken and weighed for a statistical analysis.

## H2N-Asp-Ser-Gly-Glu-Gly-Asp-Phe-Leu-Ala-Glu-Gly-Gly-Gly-Val-Arg-COOH (H-DSGEGDFLAEGGGVR-OH; listed as Homo sapiens) [FpAT, fibrinopeptide A truncated, carboxyl terminal 15 amino acids of fibrinopeptide A]
[1]
  microfilament disassembly in HUVECs: can induce the microfilament disassembly
[2]
  blood vessel distribution and original blood vessel: inducing disorder of blood vessel distribution and atrophy of original blood vessel
  blood vessel formation: suppressing remarkably blood vessel formation
[3]
  growth of human colon cancer HT-29 cells in nude mice (tumor mass): could suppress the growths
[4]
  tumor suppressing rate: 65.4%
[5]
  growth of human gastric carcinoma BGC-823 cells in nude mice (tumor mass): could suppress the growths
[6]
  growth of mouse liver cancer H22 cells in vivo (tumor mass): could suppressed the growths
